Reference: paper PMC2248166, “Quantitative peptide binding motifs for 19 human and mouse MHC class I molecules derived using positional scanning combinatorial peptide libraries” (Immunome Research, 2008)

Key:
Type in all cases: binding
HLA A*3001 = HLA A*3001 (Homo sapiens, UniProt P04439, D140H/D185E/E176W/F33S/G80R/H175R/K168Q/R138E/R41S); experiment: biochemical
HLA A*3201 = HLA A*3201 (Homo sapiens, UniProt P04439, A270S/D101S/D185E/E176V/E277Q/F133L/G103R/G107R/G231S/H175R/I121M/I218V/I322F/K168Q/L105A/L300P/L318F/M331R/P208A/P217A/Q94H/R106L/R138Q/S129P/T104I/T323A/T345S/V100E/V321M/V358M); experiment: biochemical
HLA A*6802 = HLA A*6802 (Homo sapiens, UniProt P04439, A269V/D140Y/D185E/E176V/E277Q/E87N/F33Y/G231S/I121R/I166T/I218V/L180W/L300P/L318F/N151K/P208A/P217A/Q86R/R138H/R169H/S129P/T345S/V36M)
HLA B*0801 = HLA B*0801 (Homo sapiens, UniProt P01889, A93T/A95T/D138N/E176V/E187T/K202T/Q94N/R180D/S35A/V36M/Y33D/Y91F); experiment: biochemical
HLA B*1501 = HLA B*1501 (Homo sapiens, UniProt P01889, A329T/A93T/A95T/C349S/D201E/D98Y/E187L/E204Q/E69M/E70A/K202T/N87E/Q94N/R155S/R180W/S121R/S35A/S48A/V306I/V36M/Y140S/Y91S); experiment: biochemical
HLA B*1503 = HLA B*1503 (Homo sapiens, UniProt P01889, A329T/A93T/A95T/C349S/D201E/D98Y/E187L/E204Q/K202T/N87E/Q94N/R155S/R180L/S121R/S35A/V306I/V36M/Y140S/Y91S); experiment: biochemical
HLA B*3501 = HLA B*3501 (Homo sapiens, UniProt P01889, A329T/A93T/A95T/C349S/D201E/D98Y/E176V/E187L/E204Q/E69T/I218V/K202T/L119I/Q94N/R155S/R180L/S121R/S35A/S48A/T118I/V127L/V306I/V36M/Y140S/Y91F)
HLA B*5101 = HLA B*5101 (Homo sapiens, UniProt P01889, A329T/A93T/A95T/C349S/D138N/D201E/D98Y/E187L/E204Q/E69T/G107R/I218V/K202T/L105A/L119W/N104I/Q94N/R106L/R155S/R180L/S101N/S121T/S35A/S48A/V306I/V36M/Y195H/Y91F)
HLA B*5301 = HLA B*5301 (Homo sapiens, UniProt P01889, A329T/A93T/A95T/C349S/D201E/D98Y/E176V/E187L/E204Q/E69T/G107R/I218V/K202T/L105A/L119I/N104I/Q94N/R106L/R155S/R180L/S101N/S121R/S35A/S48A/T118I/V127L/V306I/V36M/Y140S/Y91F)
HLA B*5401 = HLA B*5401 (Homo sapiens, UniProt P01889, A329T/C349S/D138N/D201E/E176V/E187T/E204Q/E69G/I76V/K202T/L119W/R155S/R180L/S121T/S35A/S48A/V127L/V306I/V36M/Y140L)
HLA B*5801 = HLA B*5801 (Homo sapiens, UniProt P01889, A329T/C349S/D201E/D98Y/E176V/E187L/E204Q/E69T/G107R/I218V/I90N/K202T/L105A/L119I/N104I/N87E/Q89R/Q94S/R106L/R155S/R180L/R86G/S101N/S121R/S35A/S48A/T118I/V127L/V306I/V36M/Y140S/Y91M)
HLA B*5802 = HLA B*5802 (Homo sapiens, UniProt P01889, A329T/C349S/D201E/D98Y/E176V/E187L/E204Q/E69T/G107R/I218V/I90N/K202T/L105A/N104I/N87E/Q89R/Q94S/R106L/R155S/R180L/R86G/S101N/S121W/S35A/S48A/V127L/V306I/V36M/Y140S/Y91M)
H-2 D^b = H-2 D^b (Mus musculus, UniProt P01899)
H-2 D^d = H-2 D^d (Mus musculus, UniProt P01900)
H-2 K^d = H-2 K^d (Mus musculus, UniProt P01902)
H-2 K^k = H-2 K^k (Mus musculus, UniProt P04223)
H-2 K^k, sequence (P01887 21-119): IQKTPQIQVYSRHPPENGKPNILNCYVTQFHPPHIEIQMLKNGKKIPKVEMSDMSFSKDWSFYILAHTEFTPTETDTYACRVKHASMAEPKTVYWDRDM
H-2 K^k, sequence (P04223 22-369): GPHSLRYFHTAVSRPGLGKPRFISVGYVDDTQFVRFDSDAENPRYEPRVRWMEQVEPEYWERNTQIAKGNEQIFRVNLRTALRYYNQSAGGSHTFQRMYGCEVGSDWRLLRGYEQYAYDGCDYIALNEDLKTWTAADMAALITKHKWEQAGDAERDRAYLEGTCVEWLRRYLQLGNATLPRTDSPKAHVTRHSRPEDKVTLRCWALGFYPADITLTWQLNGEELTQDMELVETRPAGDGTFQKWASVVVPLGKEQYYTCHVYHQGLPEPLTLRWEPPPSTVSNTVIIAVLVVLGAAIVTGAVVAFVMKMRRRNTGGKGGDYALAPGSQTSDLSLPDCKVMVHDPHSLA

H-2 K^d, sequence (P01887 21-119): as the sequence (P01887 21-119) above
H-2 K^d, sequence (P01902 22-368): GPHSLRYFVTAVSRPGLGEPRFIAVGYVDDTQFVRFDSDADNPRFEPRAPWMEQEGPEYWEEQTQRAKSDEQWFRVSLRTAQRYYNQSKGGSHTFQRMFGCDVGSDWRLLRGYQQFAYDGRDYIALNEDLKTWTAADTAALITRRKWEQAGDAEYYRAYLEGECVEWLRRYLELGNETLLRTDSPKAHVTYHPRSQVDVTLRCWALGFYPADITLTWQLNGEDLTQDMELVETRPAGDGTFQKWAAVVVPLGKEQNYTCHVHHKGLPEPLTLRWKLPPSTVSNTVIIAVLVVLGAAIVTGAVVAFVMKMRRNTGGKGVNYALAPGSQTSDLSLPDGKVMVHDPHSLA
H-2 D^b, sequence (P01887 21-119): as the sequence (P01887 21-119) above
H-2 D^b, sequence (P01899 25-362): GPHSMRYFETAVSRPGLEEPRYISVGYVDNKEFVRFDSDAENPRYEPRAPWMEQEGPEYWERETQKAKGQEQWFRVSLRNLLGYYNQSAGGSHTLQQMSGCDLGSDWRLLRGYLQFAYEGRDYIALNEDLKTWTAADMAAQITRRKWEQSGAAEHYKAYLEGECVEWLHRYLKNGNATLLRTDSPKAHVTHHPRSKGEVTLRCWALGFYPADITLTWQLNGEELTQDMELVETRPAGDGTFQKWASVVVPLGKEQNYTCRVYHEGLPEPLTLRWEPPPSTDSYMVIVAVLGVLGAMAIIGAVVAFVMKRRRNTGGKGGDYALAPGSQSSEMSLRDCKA
H-2 D^d, sequence (P01900 whole entry, looked up): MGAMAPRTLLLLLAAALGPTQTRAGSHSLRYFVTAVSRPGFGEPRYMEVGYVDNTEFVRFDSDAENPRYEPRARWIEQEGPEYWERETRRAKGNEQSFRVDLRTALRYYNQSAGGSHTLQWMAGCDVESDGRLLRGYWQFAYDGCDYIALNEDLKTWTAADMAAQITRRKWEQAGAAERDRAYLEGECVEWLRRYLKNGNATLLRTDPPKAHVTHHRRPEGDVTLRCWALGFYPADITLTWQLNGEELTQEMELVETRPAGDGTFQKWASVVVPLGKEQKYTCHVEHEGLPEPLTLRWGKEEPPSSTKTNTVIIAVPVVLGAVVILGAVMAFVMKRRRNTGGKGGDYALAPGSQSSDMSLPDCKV

Row | Sequence | Normalized average relative binding affinity(ARB) (HLA A*3001) | Normalized average relative binding affinity(ARB) (HLA A*3201) | Normalized average relative binding affinity(ARB) (HLA A*6802) | Normalized average relative binding affinity(ARB) (HLA B*0801) | Normalized average relative binding affinity(ARB) (HLA B*1501) | Normalized average relative binding affinity(ARB) (HLA B*1503) | Normalized average relative binding affinity(ARB) (HLA B*3501) | Normalized average relative binding affinity(ARB) (HLA B*5101) | Normalized average relative binding affinity(ARB) (HLA B*5301) | Normalized average relative binding affinity(ARB) (HLA B*5401) | Normalized average relative binding affinity(ARB) (HLA B*5801) | Normalized average relative binding affinity(ARB) (HLA B*5802) | Normalized average relative binding affinity(ARB) (H-2 D^b) | Normalized average relative binding affinity(ARB) (H-2 D^d) | Normalized average relative binding affinity(ARB) (H-2 K^d) | Normalized average relative binding affinity(ARB) (H-2 K^k)
1 | XXXXAXXXX [3064.0081] | 0.48 | 0.14 | 0.48 | 0.029 | 0.64 | 1.0 | 0.57 | 1.0 | 0.13 | 0.29 | 0.28 | 0.56 | 0.046 | 0.37 | 0.37 | 0.14
2 | XXXXCXXXX [3064.0082] | 0.12 | 0.15 | 0.65 | 0.020 | 0.87 | 0.62 | 0.37 | 0.38 | 0.13 | 0.39 | 0.14 | 0.53 | 0.060 | 0.045 | 0.19 | 0.095
3 | XXXXDXXXX [3064.0083] | 0.041 | 0.043 | 0.20 | 0.0054 | 0.17 | 0.23 | 0.25 | 0.34 | 0.13 | 0.27 | 0.11 | 0.12 | 0.058 | 0.049 | 0.15 | 0.026
4 | XXXXEXXXX [3064.0084] | 0.099 | 0.066 | 0.20 | 0.014 | 0.42 | 0.41 | 0.34 | 0.20 | 0.15 | 0.26 | 0.21 | 0.23 | 0.021 | 0.059 | 0.031 | 0.11
5 | XXXXFXXXX [3064.0085] | 0.38 | 1.0 | 0.87 | 0.21 | 0.52 | 0.78 | 0.63 | 0.29 | 1.0 | 1.0 | 0.43 | 0.089 | 0.044 | 0.16 | 0.13 | 0.19
6 | XXXXGXXXX [3064.0086] | 0.29 | 0.31 | 1.0 | 0.029 | 0.77 | 0.65 | 0.35 | 0.31 | 0.32 | 0.19 | 0.38 | 0.37 | 0.064 | 0.11 | 0.30 | 0.17
7 | XXXXHXXXX [3064.0087] | 0.14 | 0.14 | 0.46 | 0.65 | 0.66 | 0.32 | 0.19 | 0.35 | 0.091 | 0.19 | 0.21 | 0.74 | 0.066 | 0.64 | 0.064 | 0.022
8 | XXXXIXXXX [3064.0088] | 0.20 | 0.59 | 0.88 | 0.080 | 0.32 | 0.12 | 0.26 | 0.33 | 0.30 | 0.13 | 0.34 | 0.79 | 0.020 | 0.28 | 0.19 | 0.24
